# Assay results published in patent EP0949243A1, “OPTICALLY ACTIVE METHOXYIMINOACETAMIDE DERIVATIVES, PROCESS FOR THE PREPARATION OF THEM, INTERMEDIATES THEREFOR, AND PESTICIDES CONTAINING THEM AS THE ACTIVE INGREDIENT” (MITSUBISHI CHEMICAL CORPORATION, priority 1996, dated 1998).
# Like-named read-outs stand apart in the source and are kept apart here.
# How the values were obtained:
# [1] = tested on: tomato late blight fungus (Phytophthora infestans); format: in vivo; settings: single chemical
# [2] = tested on: wheat brown rust fungus (Puccinia recondita); assay: Effect of combined application for controlling wheat brown rust (Test Example 6); format: in vivo; settings: single chemical
# [3] = tested on: wheat powdery mildew fungus (Erysiphe graminis f. sp. tritici); assay: Effect of combined application for controlling wheat powdery mildew (Test Example 5); format: in vivo; settings: single chemical
# [4] = tested on: wheat brown rust fungus (Puccinia recondita); assay: Preventive activity on wheat brown rust (Test Example 2); format: in vivo; settings: 10 ppm, foliar application on wheat, wettable powder
# [5] = tested on: cucumber gray mold fungus (Botrytis cinerea); assay: Effect of combined application for controlling cucumber gray mold (Test Example 8); format: in vivo; settings: single chemical, from diameter of lesion
# CD rats (female) = assay: Oral acute toxicity test using rats (Test Example 3); settings: for LC50 value: CD rats (female), single oral administration, suspended in tragacanth gum aqueous solution
# Procedure: Each of the compound No. 2 and its racemate No. 2r was suspended in tragacanth gum aqueous solution and applied to CD rats (female) by single oral administration in a dosage of 300, 600, 1,200, 2,500 or 5,000 mg/kg to obtain its LC50 value.
# [6] = tested on: wheat powdery mildew fungus (Erysiphe graminis); assay: Preventive activity on wheat powdery mildew (Test Example 1); format: in vivo; settings: foliar application on wheat, wettable powder
compound,measurement,setting,value
"CCCN(CCOc1c(Cl)cc(Cl)cc1Cl)C(=O)n1ccnc1 [Known compound d, N-propyl-N-[2-(2,4,6-trichlorophenoxy)ethyl]imidazole-1-carboxamide]",Preventive value (%),[1]; 0.2 ppm,62%
same,Preventive value (%),[1]; 1 ppm,79%
same,Preventive value (%),[1]; 5 ppm,95%
same,Preventive value (%),[2]; 2.4 ppm,0%
same,Preventive value (%),[2]; 12 ppm,19%
"CC(C)(C)C(O)(CCc1ccc(Cl)cc1)Cn1cncn1 (racemic) [Known compound b, (RS)-1-p-chlorophenyl-4,4-dimethyl-3-(1H-1,2,4-triazol-1-ylmethyl)pentan-3-ol]",Preventive value (%),[3]; 0.2 ppm,23%
same,Preventive value (%),[3]; 1 ppm,65%
same,Preventive value (%),[2]; 0.2 ppm,22%
same,Preventive value (%),[2]; 1 ppm,75%
"CC1(C)CCC(Cc2ccc(Cl)cc2)C1(O)Cn1cncn1 (racemic) [Known compound a, (1RS,5RS;1RS,5SR)-5-(4-chlorobenzyl)-2,2-dimethyl-1-(1H-1,2,4-triazol-1-ylmethyl)cyclopentanol]",Preventive value (%),[3]; 0.2 ppm,35%
same,Preventive value (%),[3]; 1 ppm,80%
same,Preventive value (%),[2]; 0.2 ppm,25%
same,Preventive value (%),[2]; 1 ppm,81%
"CNC(=O)C(=NOC)c1ccccc1C=NO[C@@H](C)c1cccc(C(F)(F)F)c1 (single isomer, unassigned) [compound 2]",Preventive value (%),[1]; 0.4 ppm,23%
same,Preventive value (%),[1]; 2 ppm,73%
same,Preventive value (%),[1]; 10 ppm,95%
same,Preventive value,[4],99
same,Preventive value (%),[3]; 0.2 ppm,25%
same,Preventive value (%),[3]; 1 ppm,87%
same,Preventive value (%),[5]; 0.4 ppm,13%
same,Preventive value (%),[5]; 2 ppm,53%
same,Preventive value (%),[5]; 10 ppm,94%
same,LC50 value,CD rats (female),"≥ 5,000 mg/kg"
same,Preventive value (%),[2]; 0.2 ppm,2%
same,Preventive value (%),[2]; 1 ppm,48%
same,Preventive value (%),[6]; 2.0 ppm,97%
same,Preventive value (%),[6]; 4.0 ppm,100%
"CNC(=O)C(=NOC)c1ccccc1C=NO[C@H](C)c1cccc(C(F)(F)F)c1 (single isomer, unassigned) [compound 1]",Preventive value,[4],0
same,Preventive value (%),[6]; 2.0 ppm,6%
same,Preventive value (%),[6]; 4.0 ppm,51%
O=[N+]([O-])c1cc(C(F)(F)F)c(Cl)c([N+](=O)[O-])c1Nc1ncc(C(F)(F)F)cc1Cl [Known compound f],Preventive value (%),[5]; 0.2 ppm,52%
same,Preventive value (%),[5]; 1 ppm,68%
same,Preventive value (%),[5]; 5 ppm,98%
"CC(Cc1ccc(C(C)(C)C)cc1)CN1C[C@@H](C)O[C@@H](C)C1 (mixture of isomers) [Known compound c, (±)-cis-4-[3-(4-tert-butylphenyl)-2-methylpropyl]-2,6-dimethylmorpholine]",Preventive value (%),[3]; 2.4 ppm,18%
same,Preventive value (%),[3]; 12 ppm,50%
same,Preventive value (%),[2]; 2.4 ppm,0%
same,Preventive value (%),[2]; 12 ppm,0%
"CNC(=O)C(=NOC)c1ccccc1C=NOC(C)c1cccc(C(F)(F)F)c1 (racemic) [2r, N-methyl-2-[2-{1-(3-trifluoromethylphenyl)ethoxyiminomethyl}phenyl]-2-methoxyiminoacetamide]",Preventive value,[4],32
same,LC50 value,CD rats (female),"1,784 mg/kg"
same,mortality,CD rats (female); single oral dosage of 300 mg/kg,no mortality
same,cases died,CD rats (female); single oral dosage of 600 mg/kg,1/5
same,cases died,"CD rats (female); single oral dosage of 1,200 mg/kg",1/5
same,cases died,"CD rats (female); single oral dosage of 2,500 mg/kg",4/5
same,cases died,"CD rats (female); single oral dosage of 5,000 mg/kg",4/5
same,Preventive value (%),[6]; 2.0 ppm,64%
same,Preventive value (%),[6]; 4.0 ppm,96%
